The source of these data is patent publication US20090117170A1, “SEGMENTED DEVICE FOR THE DELAYED RELEASE OF MOLECULES IN A TANGENTIAL DIRECTION THROUGH THIN FILMS AND USES THEREOF” (CAPSULUTION NANOSCIENCE AG, priority 2004, published 2009).

Data set [1] in a line: ibuprofen release from segmented glass release apparatus in phosphate saline buffer. Format: physicochemical. To be noted: 10 intersegment films, 37° C., phosphate saline buffer pH 7.4 with sodium azide. The procedure: A release apparatus was produced from glass discs 3 to 11 (soda-lime glass, edge lengths 26.0×26.0 mm, disc thickness of 1.0 mm) having a surface roughness of 0.172-1.39 Ra (see FIGS. 7A and 7B). The release apparatus consisted of 9 discs (26.0×26.0 mm) having a core drilling 13 (diameter=8 mm) and was closed off on both sides by two discs without a core drilling. Separate intersegment films were not used. A reservoir volume of theoretically 452.4 μl results in the case of 9 discs having a core drilling and a disc thickness of 1.0 mm. The release apparatus was filled with a model substance before closing (100 mg of crystalline ibuprofen) and the remaining reservoir volume was subsequently filled with release medium. Following this, the release behavior of the model substance was investigated at 37° C. in phosphate saline buffer pH 7.4 with addition of sodium azide. FIGS. 7C and 7D show the ibuprofen release from the segmented glass apparatus having 10 intersegment films in phosphate saline buffer pH 7.4 with addition of sodium azide. […] A release apparatus consisting of glass discs (soda-lime glass, edge lengths 26.0×26.0 mm, disc thickness of 1.0 mm) having a surface roughness of 0.172-1.39 Ra was produced (see FIGS. 7A and 7B), the discs being modified by a separating film covering only the outer edges of the discs such that an intersegment film thickness (hollow space) of about 50 μm was present. The release apparatus consisted of 9 discs 3 to 11 (26.0×26.0 mm) having a core drilling 13 (diameter=8 mm) and was closed off on both sides by two discs without a core drilling. Before closing, the release apparatus was filled with a model substance (100 mg of crystalline ibuprofen) and the remaining reservoir volume was subsequently filled with release medium. Following this, the release behavior of the model substance was investigated at 37° C. in phosphate saline buffer pH 7.4 with addition of sodium azide. […]

Data set [2] can be described thus: enalaprilate release from segmented silicon disc release apparatus. Format: physicochemical. The source says:
A release apparatus was produced from round silicon discs (outer diameter 14.0 mm, thickness 0.525 mm) having a very low surface roughness. The release apparatus consisted of 15 discs having a core drilling (diameter=8 mm), a silicon disc without a core drilling as a cover plate and a base plate having closable openings for filling. A silicon disc having a core drilling was glued onto the base plate of titanium. The release apparatus was assembled underwater and fixed by means of a holder. Subsequently, the reservoir was emptied through the reclosable openings in the base plate before the release apparatus was filled with an enalaprilate suspension.
As in Example 3, a release apparatus was produced from round silicon discs (outer diameter 14.0 mm, thickness 0.525 mm), the silicon discs being coated with polyelectrolyte multilayers. Before the assembly of the release apparatus, the silicon discs were coated with a 16 PAH/PSS layer.
As in Example 4, a release apparatus was produced from round coated silicon discs (outer diameter 14.0 mm, thickness 0.525 mm), 25 discs having a core drilling being used.

`CC(C)Cc1ccc(C(C)C(=O)O)cc1` (stereo not drawn) [ibuprofen]: in data set [1] (Example 1: glass apparatus, no separate films, 100 mg crystalline ibuprofen), the “release rate of the model substance (constant release behavior)” value is “about 65 μg/d”. For the same compound, the “duration of constant release behavior” value in data set [1] (Example 1: glass apparatus, no separate films) is reported as “more than 100 days”. The “release rate of the model substance” value in data set [1] (Example 2: glass apparatus, modified film thickness (hollow space) about 50 μm, 100 mg crystalline ibuprofen, for 10 to 100 days) is listed as “about 0.6 mg/d”.
`C[C@H](N[C@@H](CCc1ccccc1)C(=O)O)C(=O)N1CCC[C@H]1C(=O)O` [enalaprilate]: the release rate result in data set [2] (Example 3: uncoated silicon discs, 15 intersegment films, enalaprilate suspension) is “about 150 μg per day”; in data set [2] (Example 4: silicon discs coated with 16 PAH/PSS layer, 15 modified intersegment films), “about 75 μg per day”; in data set [2] (Example 5: coated silicon discs, 25 modified intersegment films), “about 140 μg per day”.
